Assay results from US20250205200A1, “5-METHOXY-N,N-[…][…] THE TREATMENT OF […]” (GH RESEARCH IRELAND LIMITED, priority 2022, published 2025).

Experiments:
[1] = tested on: human hepatocytes; experiment: Metabolic stability in Hμrel human hepatocyte co-culture assay; assay type: in vitro ADME; conditions: for Metabolic turnover: human hepatocytes
[2] = tested on: human plasma protein; experiment: Plasma binding of 5-MIAA; assay type: in vitro ADME; conditions: estimated from fu and glomerular filtration rate 90-120 ml/min
[3] = rat; cited from earlier work
[4] = Pharmacokinetics of 5-MeO-DMT and bufotenine after inhalation; assay type: in vivo, human
[5] = tested on: patients with PPD; conditions: cited from earlier work

5-Methoxyindole acetic acid [5-Methoxyindole acetic acid (5-MIAA)]
Metabolic turnover [1]: low metabolic turnover
Remaining abundance after 72 h ([1]; in the presence of hepatocytes, 1 and 10 μM): 75-82%
Disappearance with stromal cell controls [1]: no disappearance
Time until removed from circulation for urinary excretion [2]: 1 to 2 h

COc1ccc2[nH]cc(CC[N+](C)(C)[O-])c2c1 [5-MeO-DMT-N-oxide]
Excretion [3]: rapid excretion

COc1ccc2[nH]cc(CCO)c2c1 [5-Methoxyindole-3-ethanol]
Relative LC/MS peak area remaining ([1]; 1 μM Stromal cells, 4 h): 97%
Relative LC/MS peak area remaining ([1]; 1 μM Stromal cells, 8 h): 107%
Relative LC/MS peak area remaining ([1]; 1 μM Stromal cells, 24 h): 94%
Relative LC/MS peak area remaining ([1]; 1 μM Stromal cells, 48 h): 102%
Relative LC/MS peak area remaining ([1]; 1 μM Stromal cells, 72 h): 104%
Relative LC/MS peak area remaining ([1]; 10 μM Stromal cells, 4 h): 99%
Relative LC/MS peak area remaining ([1]; 10 μM Stromal cells, 8 h): 105%
Relative LC/MS peak area remaining ([1]; 10 μM Stromal cells, 24 h): 86%
Relative LC/MS peak area remaining ([1]; 10 μM Stromal cells, 48 h): 98%
Relative LC/MS peak area remaining ([1]; 10 μM Stromal cells, 72 h): 104%
Metabolic turnover [1]: high metabolic turnover
Disappearance with stromal cell controls [1]: no disappearance

CN(C)CCc1c[nH]c2ccc(O)cc12 [Bufotenine (5-OH-DMT), Bufotenine]
Detection of bufotenine in human serum ([4]; 15 minutes after administration of 5-MeO-DMT): In no case is it detected
Detection of bufotenine in human serum ([4]; after administration of 5-MeO-DMT): barely detected
Samples with bufotenine concentration above LLOQ (25 pg/ml) ([4]; after inhaled 5-MeO-DMT): Only in few samples

CC(=O)[C@H]1CC[C@H]2[C@@H]3CC[C@H]4C[C@H](O)CC[C@]4(C)[C@H]3CC[C@]12C [brexanolone]
HAM-D scores ([5]; one phase 3 trial, 30 days after initiation of infusion): significantly reduced
Efficacy (HAM-D) ([5]; other phase 3 trial): failed to show efficacy beyond 7 days
